From PMC10065276, “Enhanced therapeutic window for antimicrobial Pept-ins by investigating their structure-activity relationship” (PLOS ONE, 2023)
Positions of bridges follow the written chain, without caps; N, C: chain ends. Residues, ends and D or L forms follow the SMILES beside them.

tested on: E. coli BL21; conditions: BL21, 17 h
Protocol: The peptide MIC was determined via the broth microdilution assay according to the EUCAST guideline, using 96-well polystyrene flat-bottom microtiter plates (BD Biosciences). Briefly, a single colony was inoculated in 5 mL Mueller-Hinton (MH) medium and incubated, while shaking at 37°C, to the end-exponential growth phase. The bacterial culture was subsequently diluted to 0.005 McFarland (McF) (~1.5x10^6 CFU/mL) with fresh MH medium. Two-fold serial peptide-dilutions were prepared in 50 μL MH medium resulting in a concentration range of 0.75 to 100 μg/mL (at least three wells for each concentration). Afterwards, 50 μL of the freshly diluted bacterial suspension (0.005 McF) was mixed with different peptide concentrations in the 96-well plate, performed in triplicates. The plate was ultimately incubated at 37°C overnight without shaking for 17 hours. The MIC was determined as the lowest peptide concentration without visible bacterial growth.

Structure (SMILES)	BL21 MIC [µg/mL]	BL21 MIC, SS bond [µg/mL]	BL21 MIC, no SS bond [µg/mL]
CSCC[C@H](NC(=O)[C@H](CC(C)C)NC(=O)CNC(=O)[C@H](CC(C)C)NC(=O)CNC(=O)[C@H](CCCNC(=N)N)NC(=O)[C@@H]1CCCN1C(=O)[C@H](CCCNC(=N)N)NC(=O)[C@H](CCCNC(=N)N)NC(=O)[C@@H](NC(=O)[C@H](CC(C)C)NC(=O)[C@H](C)NC(=O)[C@H](CC(C)C)NC(=O)CNC(=O)[C@H](CC(C)C)NC(=O)CNC(=O)[C@@H](N)CCCNC(=N)N)C(C)C)C(=O)N[C@@H](CC(C)C)C(=O)N[C@H](C(=O)N[C@@H](CCCNC(=N)N)C(=O)N[C@@H](CCCNC(=N)N)C(=O)O)C(C)C [Peptide P2_A5M] (H-RGLGLALVRRPRGLGLMLVRR-OH)	6.25		
CC(C)C[C@H](NC(=O)CNC(=O)[C@H](CCCNC(=N)N)NC(=O)[C@@H]1CCCN1C(=O)[C@H](CCCNC(=N)N)NC(=O)[C@H](CCCNC(=N)N)NC(=O)[C@@H](NC(=O)[C@H](CC(C)C)NC(=O)[C@H](C)NC(=O)[C@H](CC(C)C)NC(=O)CNC(=O)[C@H](CC(C)C)NC(=O)CNC(=O)[C@@H](N)CCCNC(=N)N)C(C)C)C(=O)NCC(=O)N[C@@H](CC(C)C)C(=O)N[C@@H](Cc1c[nH]c2ccccc12)C(=O)N[C@@H](CC(C)C)C(=O)N[C@H](C(=O)N[C@@H](CCCNC(=N)N)C(=O)N[C@@H](CCCNC(=N)N)C(=O)O)C(C)C [Peptide P2_A5W] (H-RGLGLALVRRPRGLGLWLVRR-OH)	6.25		
CC(C)C[C@H](NC(=O)CNC(=O)[C@H](CCCNC(=N)N)NC(=O)[C@@H]1CCCN1C(=O)[C@H](CCCNC(=N)N)NC(=O)[C@H](CCCNC(=N)N)NC(=O)[C@@H](NC(=O)[C@H](CC(C)C)NC(=O)[C@H](C)NC(=O)[C@H](CC(C)C)NC(=O)CNC(=O)[C@H](CC(C)C)NC(=O)CNC(=O)[C@@H](N)CCCNC(=N)N)C(C)C)C(=O)NCC(=O)N[C@@H](CC(C)C)C(=O)N[C@@H](Cc1ccc(O)cc1)C(=O)N[C@@H](CC(C)C)C(=O)N[C@H](C(=O)N[C@@H](CCCNC(=N)N)C(=O)N[C@@H](CCCNC(=N)N)C(=O)O)C(C)C [Peptide P2_A5Y] (H-RGLGLALVRRPRGLGLYLVRR-OH)	6.25		
CC(C)C[C@H](NC(=O)CNC(=O)[C@H](CCCNC(=N)N)NC(=O)[C@@H]1CCCN1C(=O)[C@H](CCCNC(=N)N)NC(=O)[C@H](CCCNC(=N)N)NC(=O)[C@@H](NC(=O)[C@H](CC(C)C)NC(=O)[C@H](C)NC(=O)[C@H](CC(C)C)NC(=O)CNC(=O)[C@H](CC(C)C)NC(=O)[C@H](C)NC(=O)[C@@H](N)CCCNC(=N)N)C(C)C)C(=O)NCC(=O)N[C@@H](CC(C)C)C(=O)N[C@@H](C)C(=O)N[C@@H](CC(C)C)C(=O)N[C@H](C(=O)N[C@@H](CCCNC(=N)N)C(=O)N[C@@H](CCCNC(=N)N)C(=O)O)C(C)C [Peptide P2_G2A] (H-RALGLALVRRPRGLGLALVRR-OH)	6.25		
CC(C)C[C@H](NC(=O)CNC(=O)[C@H](CCCNC(=N)N)NC(=O)[C@@H]1CCCN1C(=O)[C@H](CCCNC(=N)N)NC(=O)[C@H](CCCNC(=N)N)NC(=O)[C@@H](NC(=O)[C@H](CC(C)C)NC(=O)[C@H](C)NC(=O)[C@H](CC(C)C)NC(=O)[C@H](C)NC(=O)[C@H](CC(C)C)NC(=O)CNC(=O)[C@@H](N)CCCNC(=N)N)C(C)C)C(=O)NCC(=O)N[C@@H](CC(C)C)C(=O)N[C@@H](C)C(=O)N[C@@H](CC(C)C)C(=O)N[C@H](C(=O)N[C@@H](CCCNC(=N)N)C(=O)N[C@@H](CCCNC(=N)N)C(=O)O)C(C)C [Peptide P2_G4A] (H-RGLALALVRRPRGLGLALVRR-OH)	6.25		
CC(C)C[C@H](NC(=O)CNC(=O)[C@@H](N)CCCNC(=N)N)C(=O)NCC(=O)N[C@@H](CC(C)C)C(=O)N[C@@H](C)C(=O)N[C@@H](CC(C)C)C(=O)N[C@H](C(=O)N[C@@H](CCCNC(=N)N)C(=O)N[C@@H](CCCNC(=N)N)C(=O)N1CCC[C@H]1C(=O)N[C@@H](CCCNC(=N)N)C(=O)N[C@@H](C)C(=O)N[C@@H](CC(C)C)C(=O)NCC(=O)N[C@@H](CC(C)C)C(=O)N[C@@H](C)C(=O)N[C@@H](CC(C)C)C(=O)N[C@H](C(=O)N[C@@H](CCCNC(=N)N)C(=O)N[C@@H](CCCNC(=N)N)C(=O)O)C(C)C)C(C)C [Peptide P2_G13A] (H-RGLGLALVRRPRALGLALVRR-OH)	12.50		
CC(C)C[C@H](NC(=O)CNC(=O)[C@@H](N)CCCNC(=N)N)C(=O)NCC(=O)N[C@@H](CC(C)C)C(=O)N[C@@H](C)C(=O)N[C@@H](CC(C)C)C(=O)N[C@H](C(=O)N[C@@H](CCCNC(=N)N)C(=O)N[C@@H](CCCNC(=N)N)C(=O)N1CCC[C@H]1C(=O)N[C@@H](CCCNC(=N)N)C(=O)NCC(=O)N[C@@H](CC(C)C)C(=O)N[C@@H](C)C(=O)N[C@@H](CC(C)C)C(=O)N[C@@H](C)C(=O)N[C@@H](CC(C)C)C(=O)N[C@H](C(=O)N[C@@H](CCCNC(=N)N)C(=O)N[C@@H](CCCNC(=N)N)C(=O)O)C(C)C)C(C)C [Peptide P2_G15A] (H-RGLGLALVRRPRGLALALVRR-OH)	12.50		
CC(C)C[C@H](NC(=O)CNC(=O)[C@H](CCCNC(=N)N)NC(=O)[C@H](CCCNC(=N)N)NC(=O)[C@@H]1CCCN1C(=O)[C@H](CCCNC(=N)N)NC(=O)[C@@H](NC(=O)[C@H](CC(C)C)NC(=O)[C@H](C)NC(=O)[C@H](CC(C)C)NC(=O)CNC(=O)[C@H](CC(C)C)NC(=O)CNC(=O)[C@H](CCCNC(=N)N)NC(=O)[C@@H](N)CCCNC(=N)N)C(C)C)C(=O)NCC(=O)N[C@@H](CC(C)C)C(=O)N[C@@H](C)C(=O)N[C@@H](CC(C)C)C(=O)N[C@H](C(=O)N[C@@H](CCCNC(=N)N)C(=O)O)C(C)C [Peptide P2_GK_10] (H-RRGLGLALVRPRRGLGLALVR-OH)	12.50		
CC(C)C[C@H](NC(=O)CNC(=O)[C@H](CCCNC(=N)N)NC(=O)[C@@H]1CSSC[C@H](NC(=O)[C@@H](NC(=O)[C@H](CC(C)C)NC(=O)[C@H](C)NC(=O)[C@H](CC(C)C)NC(=O)CNC(=O)[C@H](CC(C)C)NC(=O)CNC(=O)[C@@H](N)CCCNC(=N)N)C(C)C)C(=O)N[C@@H](CCCNC(=N)N)C(=O)N[C@@H](CCCNC(=N)N)C(=O)N[C@@H](CCCNC(=N)N)C(=O)N[C@@H](Cc2ccccc2)C(=O)N1)C(=O)NCC(=O)N[C@@H](CC(C)C)C(=O)N[C@@H](C)C(=O)N[C@@H](CC(C)C)C(=O)N[C@H](C(=O)N[C@@H](CCCNC(=N)N)C(=O)N[C@@H](CCCNC(=N)N)C(=O)O)C(C)C [Peptide P2_H12_FC] (H-RGLGLALVCRRRFCRGLGLALVRR-OH; disulfide 9-14)		3.50	6.25
CC(C)C[C@H](NC(=O)CNC(=O)[C@H](CCCNC(=N)N)NC(=O)[C@@H]1CSSC[C@H](NC(=O)[C@@H](NC(=O)[C@H](CC(C)C)NC(=O)[C@H](C)NC(=O)[C@H](CC(C)C)NC(=O)CNC(=O)[C@H](CC(C)C)NC(=O)CNC(=O)[C@@H](N)CCCNC(=N)N)C(C)C)C(=O)N[C@@H](CCCNC(=N)N)C(=O)N[C@@H](CCCNC(=N)N)C(=O)N[C@@H]([C@@H](C)O)C(=O)NCC(=O)N1)C(=O)NCC(=O)N[C@@H](CC(C)C)C(=O)N[C@@H](C)C(=O)N[C@@H](CC(C)C)C(=O)N[C@H](C(=O)N[C@@H](CCCNC(=N)N)C(=O)N[C@@H](CCCNC(=N)N)C(=O)O)C(C)C [Peptide P2_H12_TG] (H-RGLGLALVCRRTGCRGLGLALVRR-OH; disulfide 9-14)		6.50	6.25
CC(C)C[C@H](NC(=O)CNC(=O)[C@H](CCCNC(=N)N)NC(=O)[C@@H]1CSSC[C@H](NC(=O)[C@@H](NC(=O)[C@H](CC(C)C)NC(=O)[C@H](C)NC(=O)[C@H](CC(C)C)NC(=O)CNC(=O)[C@H](CC(C)C)NC(=O)CNC(=O)[C@@H](N)CCCNC(=N)N)C(C)C)C(=O)N[C@@H](CCCNC(=N)N)C(=O)N[C@@H](CCCNC(=N)N)C(=O)N[C@H](Cc2ccccc2)C(=O)N2CCC[C@H]2C(=O)N1)C(=O)NCC(=O)N[C@@H](CC(C)C)C(=O)N[C@@H](C)C(=O)N[C@@H](CC(C)C)C(=O)N[C@H](C(=O)N[C@@H](CCCNC(=N)N)C(=O)N[C@@H](CCCNC(=N)N)C(=O)O)C(C)C [Peptide P2_H12_fP]		3.13	6.25
CC(C)C[C@H](NC(=O)CNC(=O)[C@H](CCCNC(=N)N)NC(=O)[C@@H]1CSSC[C@H](NC(=O)[C@@H](NC(=O)[C@H](CC(C)C)NC(=O)[C@H](C)NC(=O)[C@H](CC(C)C)NC(=O)CNC(=O)[C@H](CC(C)C)NC(=O)CNC(=O)[C@@H](N)CCCNC(=N)N)C(C)C)C(=O)N[C@@H](CCCNC(=N)N)C(=O)N[C@@H](CCCNC(=N)N)C(=O)N2CCC[C@@H]2C(=O)NCC(=O)N1)C(=O)NCC(=O)N[C@@H](CC(C)C)C(=O)N[C@@H](C)C(=O)N[C@@H](CC(C)C)C(=O)N[C@H](C(=O)N[C@@H](CCCNC(=N)N)C(=O)N[C@@H](CCCNC(=N)N)C(=O)O)C(C)C [Peptide P2_H12_pG]		3.13	6.25
CC(C)C[C@H](NC(=O)CNC(=O)[C@H](CCCNC(=N)N)NC(=O)[C@@H]1CCCN1C(=O)[C@H](CCCNC(=N)N)NC(=O)[C@H](CCCNC(=N)N)NC(=O)[C@@H](NC(=O)[C@H](CC(C)C)NC(=O)[C@H](C)NC(=O)[C@H](CC(C)C)NC(=O)CNC(=O)[C@H](C)NC(=O)CNC(=O)[C@@H](N)CCCNC(=N)N)C(C)C)C(=O)NCC(=O)N[C@@H](CC(C)C)C(=O)N[C@@H](C)C(=O)N[C@@H](CC(C)C)C(=O)N[C@H](C(=O)N[C@@H](CCCNC(=N)N)C(=O)N[C@@H](CCCNC(=N)N)C(=O)O)C(C)C [Peptide P2_L3A] (H-RGAGLALVRRPRGLGLALVRR-OH)	12.50		
